{"source": "patent US10047151B2", "about": "“Methods for the treatment of cancer and inflammatory diseases using cereblon as a predictor” (Celgene Corporation, priority 2011, dated 2018)", "molecules": {"B1": {"name": "CGN-6-4-5: rabbit monoclonal anti-CRBN antibody, heavy chain SEQ ID NO:9, light chain SEQ ID NO:11 (antibody)", "heavy": "METGLRWLLLVAVLKGVQCQSVEESGGRLVTPGTPLTLTCTVSGFSLSRYGVSWVRQAPGKGLEHIGYIYSDPGMTFYATWAKGRFTISKTSSTTVDLKMTSPTIEDTATYFCARGTPLASYSTWGPGTLVTISLGQPKAPSVFPLAPCCGDTPSSTVTLGCLVKGYLPEPVTVTWNSGTLTNGVRTFPSVRQSSGLYSLSSVVSVTSSSQPVTCNVAHPATNTKVDKTVAPSTCSKPTCPPPELLGGPSVFIFPPKPKDTLMISRTPEVTCVVVDVSQDDPEVQFTWYINNEQVRTARPPLREQQFNSTIRVVSTLPIAHQDWLRGKEFKCKVHNKALPAPIEKTISKARGQPLEPKVYTMGPPREELSSRSVSLTCMINGFYPSDISVEWEKNGKAEDNYKTTPAVLDSDGSYFLYSKLSVPTSEWQRGDVFTCSVMHEALHNHYTQKSISRSPGK", "light": "MDTRAPTQLLGLLLLWLPGATFAQVLTQTPASVSAAVGGTVTINCQSSENIYKNNYLSWFQQKPGQPPKLLIYQASTLASGVPSRFKGSGSGTRFSLTISDLECDDAATYYCAGGYSGNIFTFGGGTEVVVKGDPVAPTVLIFPPAADQVATGTVTIVCVANKYFPDVTVTWEVDGTTQTTGIENSKTPQNSADCTYNLSSTLTLTSTQYNSHKEYTCKVTQGTTSVVQSFNRGDC"}}, "key": {"[1]": {"test_system": "TNF", "assay": "TNF inhibition by Compound A", "format": "cell-based"}, "[2]": {"test_system": "Jurkat IL-2", "assay": "Jurkat IL-2 induction by Compound A", "format": "cell-based"}, "[3]": {"test_system": "U266", "assay": "Ubiscan ubiquitinated peptide quantification in U266", "format": "cell-based", "description": "The effects of lenalidomide and pomalidomide on protein ubiquination were investigated using CST Ubiscan technology. Treated samples were sent to Cell Signaling Technology for ubiquinated peptide enrichment and quantification by LC/MS/MS. […] In the MG132 combo, more ubiquinated peptides are observed (compared with their controls). […] These peptides correspond to 176 unique proteins. Top few groups are: nucleosome, chromatin, protein-DNA complex assembly, Histone H2A. Among the 176 proteins, we found five proteins that belong to “ubiquitin-protein ligase activity” category, they are MDM2, HERC2, UBE2D3 (only by pomalidomide), UBE2N (lenalidomide only), UBE2M (both). Results for hits categorized by conditions are shown in FIGS. 8 & 9 (without MG132) and FIGS. 10 & 11 (with MG132)."}, "[4]": {"test_system": "H929 cells", "assay": "Cell cycle progression (cells in S phase) in siRNA-transfected H929 cells", "format": "cell-based", "settings": "72 h treatment", "protocol": "The effect of CRBN in H929 cells was also evaluated. H929 cells were transfected with mock, negative control siRNA and CRBN-siRNA-7 for 24, 48, 72 and 96 h. Cells were treated 24 h after transfection with DMSO (0.1%), pomalidomide (1 μM), lenalidomide (10 μM) or 3-(5-amino-2-methyl-4-oxo-4H-quinazolin-3-yl)-piperidine-2,6-dione (“Compound B”) for 1, 2, 3 days and the effect on cell cycle and proliferation investigated. Lenalidomide, pomalidomide and Compound B induced a delay of cell cycle progression, measured as the decrease of the number of cells in S phase, in control mock and negative control siRNA-transfected cells after 72 h treatment (FIG. 2C). Knockdown of CRBN markedly abrogated immunomodulatory drugs-induced delay in cell cycle progression in H929 cells (FIG. 2C) from of 50 to 4% for lenalidomide, from 70 to 15% for pomalidomide, and from 65 to 22% for Compound B."}, "[5]": {"test_system": "U266B1 cells", "assay": "Gene expression profile by microarray in U266B1 cells", "format": "cell-based", "settings": "negative control siRNA-transfected U266B1 cells; pomalidomide 1 μM, lenalidomide 10 μM; ±1.7 fold, P<0.05", "protocol": "Gene expression profile using microarray technology identified 759 or 609 genes differentially modulated in negative control siRNA-transfected U266B1 cells treated with pomalidomide (1 μM) or lenalidomide (10 μM) compared to DMSO treated control (±1.7 fold; P<0.05 ANOVA p-value) (FIGS. 5A & 5B)."}, "[6]": {"test_system": "pRb", "assay": "pRb phosphorylation in H929 cells (Western blot)", "format": "cell-based"}, "[7]": {"test_system": "IRF4", "assay": "IRF4 protein level in H929 cells (Western blot)", "format": "cell-based", "description": "In H929 cells, the cell cycle arrest in G1 phase by the drugs coincides with a reduction of tumor suppressor, pRb, phosphorylation and the oncogene and myeloma survival factor IRF4."}, "[8]": {"test_system": "p21^WAF-1", "assay": "p21WAF-1 mRNA and protein levels in U266B1 cells", "format": "cell-based", "settings": "U266B1, control mock and negative control siRNA-transfected cells; pomalidomide 1 μM, lenalidomide 10 μM", "protocol": "To further investigate the effects of CRBN on the cell cycle arrest induced by drugs we used RT-PCR and Western blot analysis to measure the levels of key cell cycle and apoptotic regulators. U266B1 cells were transfected with mock, negative control siRNA, CRBN-siRNA-7 and CRBN-siRNA-11 for 24, 48, 72 and 96 h (FIG. 3A). Cells were treated 24 h after transfection with DMSO (0.1%), pomalidomide (1 μM) and lenalidomide (10 μM) for 1, 2, 3 days and the effect on mRNA and protein levels of the cyclin-dependent kinase (CDK) inhibitor p21^WAF-1 were evaluated. It has been shown that lenalidomide- and pomalidomide-induced cell cycle arrest is dependent on up-regulation of p21^WAF-1 in […]. […] However, knockdown of CRBN prevents the induction of p21^WAF-1 indicating the successful abrogation of G1 arrest and renewal of S phase progression (FIGS. 3C & 3D)."}, "[9]": {"test_system": "CRBN", "assay": "CRBN mRNA and protein expression after drug treatment (RT-PCR, Western blot)", "format": "cell-based", "settings": "H929 and U266B1 cells; pomalidomide 1 μM, lenalidomide 10 μM"}, "[10]": {"test_system": "U266B1 cells", "assay": "Cell cycle progression (cells in S phase) in siRNA-transfected U266B1 cells", "format": "cell-based", "settings": "control mock and negative control siRNA-transfected cells; average of 3 days of treatment; pomalidomide 1 μM, lenalidomide 10 μM", "protocol": "Drugs such as lenalidomide and pomalidomide have direct anti-proliferative activity against MM cells by inducing cell cycle arrest in G1 phase, followed by a decrease in viability. To study the role of CRBN in lenalidomide and other drugs anti-proliferative activities, H929 and U266B1 cells, two sensitive myeloma lines, were transfected with CRBN-siRNAs or control siRNAs for 24, 48, 72 and 96 hours. Cells were treated 24 h after transfection with DMSO (0.1%), pomalidomide (1 μM) and lenalidomide (10 μM) for 1, 2, 3 days to evaluated the compound effect on CRBN protein, mRNA expression and the effect on cell cycle and proliferation. […] CRBN down regulation was confirmed by RT-PCR and Western blot using the CRBN70 antibody (FIG. 1).\nKnockdown of CRBN markedly abrogated the lenalidomide and pomalidomide-induced delay in cell cycle progression in U266B1 cells. Id."}, "[11]": {"test_system": "poly-ubiquitin chains", "assay": "Global polyubiquitination by immunofluorescence in H929 cells", "format": "cell-based", "settings": "1 μM, 30 minutes", "protocol": "Specific antibodies for poly-ubiquitin chains were used to study the effect of immunomodulatory drugs on global levels of ubiquitination. H929 cells were treated with lenalidomide (1 μM), pomalidomide (1 μM) or proteasome inhibitor MG132. After 30 minutes cells were process for immunofluorescence. Global levels of K63-linked polyubiquitination were quantified by Cellomics."}, "[12]": {"target": "T1, CRBN (Homo sapiens, UniProt Q96SW2)", "T1 sequence (Q96SW2 whole entry)": "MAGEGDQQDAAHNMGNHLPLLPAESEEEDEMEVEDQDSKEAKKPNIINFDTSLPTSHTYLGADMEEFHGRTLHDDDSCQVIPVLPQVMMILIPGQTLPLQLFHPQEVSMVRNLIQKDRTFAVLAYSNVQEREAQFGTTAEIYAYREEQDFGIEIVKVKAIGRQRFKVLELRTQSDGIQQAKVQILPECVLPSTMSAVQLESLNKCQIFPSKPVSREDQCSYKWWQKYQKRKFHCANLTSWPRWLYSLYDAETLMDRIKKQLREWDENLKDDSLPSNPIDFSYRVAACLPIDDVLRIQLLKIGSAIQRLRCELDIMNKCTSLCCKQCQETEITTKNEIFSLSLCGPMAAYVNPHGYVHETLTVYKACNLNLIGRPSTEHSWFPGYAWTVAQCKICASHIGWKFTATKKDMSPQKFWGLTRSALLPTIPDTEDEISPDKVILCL", "assay": "Binding of compounds to CRBN"}, "[13]": {"target": "T1, CRBN", "assay": "Denaturing immunoblot with CGN-6-4-5", "format": "binding", "set-up": "endogenous in cells; host or cells: DF15 myeloma cells (endogenous); HEK293 cells expressing recombinant flag-tagged CRBN on the same blot", "protocol": "CGN-6-4-5 was diluted 1:10,000 dilution in 0.1% Tween PBS buffer. An exemplary immunoblot with myeloma cells containing endogenous CRBN (DF15), DF15R with no CRBN and HEK293 cells expressing recombinant flag-tagged CRBN is shown in FIG. 38. Peptide neutralization was performed by combining antibody with a five-fold (by weight) excess of blocking peptide in 500 μl PBS and incubating with constant rotation at room temperature for 2 hours."}}, "data": [{"molecule": "Cl.NCCC(=O)NCc1cccc2c1C(=O)N(C1CCC(=O)NC1=O)C2=O", "note": "(centres unmarked) [Compound A]", "values": [{"measurement": "IC50", "setting": "[1]", "value": 622, "unit": "nM"}, {"measurement": "Jurkat IL-2 EC200", "setting": "[2]", "value": 3.47, "unit": "µM"}]}, {"molecule": "Nc1cccc2c1C(=O)N(C1CCC(=O)NC1=O)C2=O", "note": "(centres unmarked) [pomalidomide, 4-amino-2-(2,6-dioxopiperidin-3-yl)-1H-isoindole-1,3-dione]", "values": [{"measurement": "Ub-proteins increased in abundance", "setting": "[3]", "value": "IKZF3, RPL19, PCM1 and NEDD8"}, {"measurement": "proteins decreased in abundance", "setting": "[3]", "value": "GNB2L1 and HNRNPR"}, {"measurement": "delay in cell cycle progression (decrease of the number of cells in S phase)", "setting": "[4]; H929 cells with knockdown of CRBN", "value": 15, "unit": "%"}, {"measurement": "delay in cell cycle progression (decrease of the number of cells in S phase)", "setting": "[4]; control mock and negative control siRNA-transfected H929 cells", "value": 70, "unit": "%"}, {"measurement": "genes differentially modulated compared to DMSO treated control", "setting": "[5]", "value": 759, "unit": "genes"}, {"measurement": "phosphorylation of pRB", "setting": "[6]", "value": "decreased"}, {"measurement": "total level of protein IRF4", "setting": "[7]", "value": "decreased"}, {"measurement": "p21 level", "setting": "[8]", "value": "up-regulated"}, {"measurement": "mRNA and protein expression of CRBN", "setting": "[9]", "value": "affected neither mRNA nor protein expression of CRBN significantly"}, {"measurement": "delay of cell cycle progression, measured as the decrease of the number of cells in S phase", "setting": "[10]", "value": 50, "unit": "%"}, {"measurement": "K-63-linked ubiquitination", "setting": "[11]", "value": "but not K-63-linked ubiquitination"}, {"measurement": "total K48-linked polyubiquitination", "setting": "[11]", "value": "decrease"}]}, {"molecule": "C[C@]1(N2C(=O)c3cccc(N)c3C2=O)CCC(=O)NC1=O", "note": "[S-methyl-pomalidomide]", "values": [{"measurement": "affinity for CRBN (enantiomers compared)", "setting": "[12]", "value": "greater affinity for CRBN than R-methyl-pomalidomide"}]}, {"molecule": "O=C1NC(=O)c2ccccc21", "note": "[pthalimide]", "values": [{"measurement": "binding to CRBN", "setting": "[12]", "value": "did not"}]}, {"molecule": "B1", "values": [{"measurement": "recognition of CRBN on denaturing immunoblots", "setting": "[13]", "value": "specifically recognizes the full-length 51 kDa human CRBN protein"}]}]}
